From patent US20160137639A1, “TRIAZOLE-ISOXAZOLE COMPOUND AND MEDICAL USE THEREOF” (JAPAN TOBACCO INC., priority 2012, published 2016)
Like-named read-outs stand apart in the source and are kept apart here.

Assays:
human RORγ = molecular target: T1, human RORγ (Homo sapiens, UniProt P51449); test: Luciferase reporter gene assay of inhibitory effect against RORγ transcriptional activity (GAL4-hRORγ plasmid in CHO cells); assay type: cell-based
T1 construct: human, NM_005060.3 and from Ser253 to Lys518; expressed in transfected cells; host or cells: CHO cells (transient co-transfection with pG5-Luc reporter)
T1 sequence (P51449 253-518): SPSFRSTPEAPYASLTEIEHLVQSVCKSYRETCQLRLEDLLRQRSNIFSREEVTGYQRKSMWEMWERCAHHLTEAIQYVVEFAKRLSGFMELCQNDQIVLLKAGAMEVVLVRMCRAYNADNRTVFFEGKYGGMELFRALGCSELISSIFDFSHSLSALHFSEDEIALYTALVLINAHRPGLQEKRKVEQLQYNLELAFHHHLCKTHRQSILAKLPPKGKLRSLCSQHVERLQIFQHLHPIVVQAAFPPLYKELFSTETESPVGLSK

mouse RORγ = molecular target: T2, mouse RORγ (Mus musculus, UniProt P51450); test: Luciferase reporter gene assay of inhibitory effect against RORγ transcriptional activity (GAL4-mRORγ plasmid in CHO cells); assay type: cell-based
T2 construct: mouse, NM_011281.2 and from Ile251 to Lys516; expressed in transfected cells; host or cells: CHO cells (transient co-transfection with pG5-Luc reporter)
T2 sequence (P51450 251-516): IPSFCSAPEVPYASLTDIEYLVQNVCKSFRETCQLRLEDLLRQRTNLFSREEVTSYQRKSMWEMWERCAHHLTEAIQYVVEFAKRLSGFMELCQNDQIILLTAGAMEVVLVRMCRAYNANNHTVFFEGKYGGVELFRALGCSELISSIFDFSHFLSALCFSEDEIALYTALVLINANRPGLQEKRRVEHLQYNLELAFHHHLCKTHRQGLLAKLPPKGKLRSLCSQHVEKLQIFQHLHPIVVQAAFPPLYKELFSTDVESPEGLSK
In short: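 CHO cells transiently co-transfected with GAL4-mouse RORγ LBD (Ile251–Lys516) and GAL4-dependent luciferase reporter; eight compound concentrations, 0.1% DMSO, 2 days at 37 °C. Luminescence as %-of-vehicle control; EC50 by curve fit, cytotoxic concentrations excluded.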

| SMILES | EC50 (human RORγ; read-out: LUC EC50 hRORg) [µM] | EC50 (mouse RORγ; read-out: LUC EC50 mRORg) [µM] | EC50 (human RORγ; read-out: LUC EC50 (μM) hRORg) [µM] | EC50 (mouse RORγ; read-out: LUC EC50 (μM) mRORg) [µM] |
| --- | --- | --- | --- | --- |
| CC(=O)N1C[C@H](C(=O)Nc2ccc(Cl)cc2C)[C@@H](c2nnc(-c3cc(CC(C)C)on3)n2C2CC2)C1 [Example F-613] | < 3 | < 3 | – | – |
| Cc1ccc(NC(=O)C[C@@H](CCO)c2nnc(CCCC(C)(C)C)n2CC(F)(F)F)c(C)c1 [Example F-379] | – | – | > 3 | < 3 |
| CC(=O)N1C[C@H](C(=O)Nc2ccc(F)cc2C)[C@@H](c2nnc([C@H]3C[C@@H](CC(C)C)C3)n2C2CC2)C1 [Example F-600] | < 3 | < 3 | – | – |
| Cc1cccc(CCNC(=O)CCc2nnc(CCC(C)C)n2C2CC2)c1 [Example F-68] | – | – | > 3 | > 3 |
| Cc1ccc(NC(=O)CC(Cc2ncco2)c2nnc([C@H]3C[C@@H](CC(C)C)C3)n2C2CC2)c(C)c1 (mixture of isomers) [Example F-454] | – | – | < 3 | < 3 |
| CC(C)(C)c1cc(-c2onc([C@@H](CCC(=O)O)CC(=O)Nc3ccc(Cl)cc3F)c2C2CC2)no1 [Example E-69] | – | – | < 3 | < 3 |
| Cc1c(F)ccc(NC(=O)C[C@H](CCO)c2nnc(-c3cc(CC(C)C)on3)n2C2CC2)c1C [Example F-661] | < 3 | < 3 | – | – |
| Cc1ccc(NC(=O)CC(CCO)c2nnc(CCC3CCCCC3)n2C2CC2)c(C)c1 (racemic) [Example F-248] | – | – | < 3 | < 3 |
| Cc1ccc(NC(=O)CCc2nnc(CCC3CCCCC3)n2C2CCC2)c(C)c1 [Example F-112] | – | – | > 3 | < 3 |
| Cc1cccnc1NC(=O)CCc1nnc(CCC(C)C)n1C1CC1 [Example F-80] | – | – | > 3 | > 3 |
| CCCc1ccccc1NC(=O)CCc1nnc(CCC(C)C)n1C1CC1 [Example F-77] | – | – | > 3 | > 3 |
| Cc1c(Cl)cccc1NC(=O)CCc1nnc(C2CN(C(=O)OC(C)(C)C)C2)n1C1CC1 [Example F-234] | – | – | > 3 | < 3 |
| Cc1ccccc1CCNC(=O)CCc1nnc(CCC(C)C)n1C1CC1 [Example F-116] | – | – | > 3 | > 3 |
| Cc1c(Cl)cccc1NC(=O)CCc1nnc(CCC(C)(C)C(=O)N(C)C)n1C1CC1 [Example F-239] | – | – | > 3 | > 3 |
| Cc1ccc(NC(=O)CC(CCCN2C(=O)c3ccccc3C2=O)c2nnc(CCCC(C)C)n2C2CC2)c(C)c1 (racemic) [Example F-281] | – | – | < 3 | < 3 |
| Cc1c(Cl)cccc1NC(=O)CCc1nnc(CCCC(C)(C)C(=O)N(C)C)n1C1CC1 [Example F-238] | – | – | > 3 | > 3 |
| CC(=O)N1C[C@H](C(=O)Nc2ccc(C)cc2C)[C@@H](c2nnc(C3CC4(CCCCC4)C3)n2C2CC2)C1 [Example F-473] | – | – | < 3 | < 3 |
| Cc1ccc(NC(=O)[C@H]2CCCN(C)[C@@H]2c2nnc(CCCC(C)(C)C)n2C2CC2)c(C)c1 [Example F-310] | – | – | < 3 | < 3 |
| Cc1ccc(NC(=O)CCc2noc(C34CC5CC(CC(C5)C3)C4)c2C2CC2)c(Cl)c1 [Example F-734] | < 3 | < 3 | – | – |
| CC(=O)N[C@@H](CC(=O)Nc1ccc(C)cc1C)c1nnc(CCCC(C)(C)C)n1C1CC1 [Example F-344] | – | – | < 3 | < 3 |
| CC(C)(CO)C[C@H]1C[C@@H](c2onc([C@@H](CCC(=O)O)CC(=O)Nc3ccc(CO)cc3Cl)c2C2CC2)C1 [Example F-726] | > 3 | > 3 | – | – |
| Cc1ccc(NC(=O)C[C@@H](CCO)c2nnc(CCCC(C)(C)C)n2C2CC2)c(C)c1 [Example F-326] | – | – | > 3 | > 3 |
| Cc1ccc(NC(=O)CC(CCO)c2noc(C3CC(CC(C)C)C3)c2C2CC2)c(C)c1 (centres unmarked) [Example F-580] | < 3 | < 3 | – | – |

| SMILES | EC50 (human RORγ; read-out: LUC EC50 hRORg) [µM] | EC50 (mouse RORγ; read-out: LUC EC50 mRORg) [µM] | EC50 (human RORγ; read-out: LUC EC50 (μM) hRORg) [µM] | EC50 (mouse RORγ; read-out: LUC EC50 (μM) mRORg) [µM] |
| --- | --- | --- | --- | --- |
| Cc1ccc(NC(=O)[C@H]2CN(c3nc(C)cs3)C[C@@H]2c2nnc(CCCC(C)(C)C)n2C2CC2)c(C)c1 (racemic) [Example F-448] | – | – | < 3 | < 3 |
| Cc1ccc(NC(=O)C[C@H](CCC(=O)O)c2noc(-c3noc(CC(C)C)n3)c2C2CC2)c(Cl)c1 [Example E-11] | – | – | < 3 | < 3 |
| Cc1ncc(NC(=O)C[C@H](CCC(=O)O)c2noc([C@H]3C[C@@H](CC(C)(C)C)C3)c2C2CC2)c(C)n1 [Example F-674] | < 3 | < 3 | – | – |
| COc1cccc(CNC(=O)CCc2nnc(CCC(C)C)n2C2CC2)c1C [Example F-127] | – | – | > 3 | > 3 |
| C=CC[C@@H](CC(=O)Nc1ccc(C)cc1C)c1nnc(CCCC(C)(C)C)n1C1CC1 [Example F-389] | – | – | < 3 | < 3 |
| Cc1ccc(NC(=O)[C@H]2CN(C(=O)OC(C)(C)C)C[C@@H]2c2nnc([C@H]3C[C@@H](CC(C)(C)C)C3)n2C2CC2)c(C)c1 [Example F-540] | < 3 | < 3 | – | – |
| Cc1c(Cl)cccc1NC(=O)CCc1nnc(C(C)CC(C)C)n1C1CC1 (racemic) [Example F-98] | – | – | > 3 | < 3 |
| CCn1c(CCC(=O)Nc2cccc3ccccc23)nnc1CCC(C)(C)C [Example F-25] | – | – | > 3 | < 3 |
| CC(=O)N1C[C@@H](C(=O)Nc2ccc(C)cc2C)[C@H](c2nnc(-c3ccc(CC(C)C)cc3)n2C2CC2)C1 [Example F-407] | – | – | > 3 | > 3 |
| Cc1c(O)cccc1CNC(=O)CCc1nnc(CCC(C)C)n1C1CC1 [Example F-133] | – | – | > 3 | > 3 |
| Cc1ccc(NC(=O)CC(Cc2ccccc2)c2nnc(CCCC(C)(C)C)n2C2CC2)c(C)c1 (racemic) [Example F-436] | – | – | < 3 | < 3 |
| CCn1c(CCC(=O)Nc2ccccc2)nnc1C1Cc2ccccc2C1 [Example F-23] | – | – | > 3 | > 3 |
| Cc1ccc(NC(=O)CCc2nnc([C@H]3C[C@@H](CC(C)C)C3)n2C2CC2)c(C)c1 [Example F-358] | – | – | < 3 | < 3 |
| COc1cc(C)ccc1CNC(=O)CC(CCO)c1nnc(CCC(C)C)n1C1CC1 (racemic) [Example F-176] | – | – | > 3 | > 3 |
| CCO[C@@H](CC(=O)Nc1ccc(C)cc1C)c1nnc(-c2cc(CC(C)C)on2)n1C1CC1 [Example F-569] | < 3 | < 3 | – | – |
| COc1cc(C)ccc1CNC(=O)[C@H]1CCC(=O)N(C)[C@@H]1c1nnc(CCCC(C)(C)C)n1C1CC1 [Example F-323] | – | – | < 3 | < 3 |
| CC(=O)c1ccc(NC(=O)C[C@H](CCC(=O)O)c2noc([C@H]3C[C@@H](CC(C)(C)CO)C3)c2C2CC2)c(Cl)c1 [Example F-731] | > 3 | > 3 | – | – |
| CNC(=O)[C@H]1CC[C@H](CCc2nnc(CCC(=O)Nc3cccc(Cl)c3C)n2C2CC2)CC1 [Example F-255] | – | – | > 3 | > 3 |
| CCc1c(CCC(=O)Nc2cccc3ccccc23)noc1C1Cc2ccccc2C1 [Example F-14] | – | – | < 3 | < 3 |
| Cc1ccc(NC(=O)CCc2nnc(-c3ccc(OC(C)C)cc3)n2C2CC2)c(C)c1 [Example F-441] | – | – | > 3 | < 3 |
| Cc1ccc(NC(=O)C[C@H](CCC(=O)O)c2noc([C@H]3C[C@@H](CCc4ccccc4)C3)c2C2CC2)c(Cl)c1 [Example F-700] | < 3 | < 3 | – | – |
| Cc1ccc(NC(=O)C[C@H](CCC(=O)O)c2nnn(-c3ccc(CCC4CCCC4)cc3)c2C2CC2)c(Cl)c1 [Example F-701] | < 3 | < 3 | – | – |
| CC(C)CCc1nnc(CCC(=O)NCc2ccccc2Cl)n1C1CC1 [Example F-121] | – | – | > 3 | > 3 |
